Experimental data published in patent US9682033B2, “Methods of treating postherpetic neuralgia with a topical formulation of a spiro-oxindole compound” (Teva Pharmaceuticals International GmbH, priority 2015, dated 2017).
Values joined by “and” are separate entries in the source; they are usually repeats but may differ in a detail not shown here. Equal entries are not always repeated. Where two headings read alike, the source gives them in different places.

Assays:
[1] = Metabolite identification in samples (in vitro and in vivo); type: in vitro ADME; settings: samples (in vitro and in vivo) from rats, dogs, and humans
From the text: (§1) A total of 8 metabolites were identified in samples (in vitro and in vivo) from rats, dogs, and humans. All metabolites found in humans were also found in the Good Laboratory Practice (GLP) toxicology species, the rat. Following oral administration of spiro-oxindole compound to humans, spiro-oxindole compound and 3 of its metabolites (M1, M5, and M6) were measurable. A similar metabolic profile was observed following topical administration to humans, albeit at much lower plasma concentrations, except metabolite M1 was not detected following human topical administration.

[2] = test system: streptozotocin-induced neuropathic pain model; experiment: Streptozotocin-induced neuropathic pain model, mechanical allodynia (paw withdrawal threshold); type: in vivo, rats; settings: topical, diabetic neuropathic pain model
From the text: Topical 4% Test Pharmaceutical Composition was compared with lidocaine and diclofenac for relief of mechanical allodynia in the streptozotocin-induced neuropathic pain model in rats.

CYP450 2D6 = CYP450 2D6 (Homo sapiens, UniProt P10635); experiment: Reaction phenotyping with recombinant human CYP450 enzymes: CYP2D6; type: in vitro ADME; settings: recombinant human CYP450 2D6
[3] = 4-week (GLP) repeat-dose dermal toxicity study in minipigs; settings: minipig, in vivo, topical or ocular, 30 mg/kg/day dermal, day 28; for AUC(0-t): read-out: AUC0-24 h
Protocol: Repeat-dose dermal toxicity of a pharmaceutical composition comprising the spiro-oxindole compound was evaluated in minipigs in a 7-day (non-GLP) dermal study and in a 4-week (GLP) dermal study with a 2-week recovery period. In addition, a dose range-finding (DRF) dermal study in minipigs was conducted to aid in dose selection for a 39-week dermal toxicity study in minipigs.
However, the vehicle ointment produced in all treatment groups transient, mild to moderate, and occasionally severe dermal irritation that returned to normal during the recovery period. This correlated with minimal epidermal hyperplasia observed microscopically in the treated skin across all groups.

minipig hepatocytes = experiment: In vitro metabolic stability in hepatocytes (minipig); type: in vitro ADME; settings: ^14C-spiro-oxindole compound
From the text: as §1

CYP3A4 = experiment: Drug-drug interaction study in dogs, oral spiro-oxindole compound with iv midazolam as CYP3A4 substrate; type: in vivo; settings: oral administration
[4] = test system: cultured human lymphocytes; experiment: In vitro chromosome aberration assay in cultured human lymphocytes (GLP); type: cell-based
From the text: (§2) The spiro-oxindole compound was not genotoxic in the standard battery of genotoxicity tests (GLP), including a bacterial reverse mutation assay, an in vitro chromosome aberration assay in cultured human lymphocytes, and an in vivo rat bone marrow micronucleus test.

[5] = ADME study in the minipig after repeated daily dermal dosing (Biological Example 1); type: in vivo, Göttingen minipig; settings: for mean tissue radioactivity concentration / total radioactivity in tissue: 24 h after [^14C] dermal dose
From the text: On the day prior to the first dermal dose, the dorsum and flanks of each animal were carefully clipped using electric clippers and shaved using an electric rotary head shaver (Phillips). Clipping and shaving was as close as possible to the skin, whilst avoiding damage to the dose site. […] The corners of the treatment area (equivalent to about 6% body surface area, 11 cm×19 cm-12 cm×22 cm) were marked using an indelible pen. The process of hair removal was repeated periodically during the dose administration period as necessary.

rat hepatocytes = experiment: In vitro metabolic stability in hepatocytes (rat); type: in vitro ADME; settings: ^14C-spiro-oxindole compound
From the text: as §1

CYP450 2C9 = CYP450 2C9 (Homo sapiens, UniProt P11712); experiment: Reaction phenotyping with recombinant human CYP450 enzymes: CYP2C9; type: in vitro ADME; settings: recombinant human CYP450 2C9
human hepatocytes = experiment: In vitro metabolic stability in hepatocytes (human); type: in vitro ADME; settings: ^14C-spiro-oxindole compound
From the text: as §1

[6] = test system: bacterial reverse mutation; experiment: Bacterial reverse mutation assay (GLP); type: cell-based
From the text: as §2

rat bone marrow = experiment: In vivo rat bone marrow micronucleus test (GLP)
From the text: as §2

[7] = test system: CCI model of neuropathic pain; experiment: Chronic constriction injury (CCI) model of neuropathic pain; settings: rat, in vivo
3A4 (CYP3A4) = 3A4 (CYP3A4) (Homo sapiens, UniProt P08684); experiment: Reaction phenotyping with recombinant human CYP450 enzymes: CYP3A4; type: in vitro ADME
CYP450 2C19 (CYP2C19) = CYP450 2C19 (CYP2C19) (Homo sapiens, UniProt P33261); experiment: Reaction phenotyping with recombinant human CYP450 enzymes: CYP2C19; type: in vitro ADME
NaV1.7 = NaV1.7 (Homo sapiens, UniProt Q15858); experiment: In vitro electrophysiological studies: block of NaV1.7; type: biochemical; settings: fold greater for the inactivated state
From the text: NaV1.7 is expressed primarily in the peripheral nervous system in both sensory and sympathetic neurons (Raymond, C. K., et al., op. cit.). Loss-of-function mutations in SCN9A (the gene encoding the alpha subunit of the NaV1.7 sodium channel) cause a human condition known as congenital indifference to pain characterized by an inability to perceive pain (Cox, J. J., et al., Nature (2006), 444:894-98; Goldberg, Y. P., et al., Clin Genet (2007), 71:311-9). Gain-of-function mutations in SCN9A are associated with inherited erythromelalgia (IEM) (Drenth, J. P., et al., J Invest Dermatology (2005), 124:1333-8), which is characterized by spontaneous or easily evoked severe pain. Furthermore, up to 29% of biopsy-proven cases of idiopathic small-fiber neuropathy manifesting mainly as distal severe pain (Faber, C. G., et al., Ann Neurol (2012), 71:26-39) are associated with gain-of-function NaV1.7 channel mutations.

[8] = Protein binding in rat serum; type: in vitro ADME

Sequence of NaV1.7 (Q15858 whole entry): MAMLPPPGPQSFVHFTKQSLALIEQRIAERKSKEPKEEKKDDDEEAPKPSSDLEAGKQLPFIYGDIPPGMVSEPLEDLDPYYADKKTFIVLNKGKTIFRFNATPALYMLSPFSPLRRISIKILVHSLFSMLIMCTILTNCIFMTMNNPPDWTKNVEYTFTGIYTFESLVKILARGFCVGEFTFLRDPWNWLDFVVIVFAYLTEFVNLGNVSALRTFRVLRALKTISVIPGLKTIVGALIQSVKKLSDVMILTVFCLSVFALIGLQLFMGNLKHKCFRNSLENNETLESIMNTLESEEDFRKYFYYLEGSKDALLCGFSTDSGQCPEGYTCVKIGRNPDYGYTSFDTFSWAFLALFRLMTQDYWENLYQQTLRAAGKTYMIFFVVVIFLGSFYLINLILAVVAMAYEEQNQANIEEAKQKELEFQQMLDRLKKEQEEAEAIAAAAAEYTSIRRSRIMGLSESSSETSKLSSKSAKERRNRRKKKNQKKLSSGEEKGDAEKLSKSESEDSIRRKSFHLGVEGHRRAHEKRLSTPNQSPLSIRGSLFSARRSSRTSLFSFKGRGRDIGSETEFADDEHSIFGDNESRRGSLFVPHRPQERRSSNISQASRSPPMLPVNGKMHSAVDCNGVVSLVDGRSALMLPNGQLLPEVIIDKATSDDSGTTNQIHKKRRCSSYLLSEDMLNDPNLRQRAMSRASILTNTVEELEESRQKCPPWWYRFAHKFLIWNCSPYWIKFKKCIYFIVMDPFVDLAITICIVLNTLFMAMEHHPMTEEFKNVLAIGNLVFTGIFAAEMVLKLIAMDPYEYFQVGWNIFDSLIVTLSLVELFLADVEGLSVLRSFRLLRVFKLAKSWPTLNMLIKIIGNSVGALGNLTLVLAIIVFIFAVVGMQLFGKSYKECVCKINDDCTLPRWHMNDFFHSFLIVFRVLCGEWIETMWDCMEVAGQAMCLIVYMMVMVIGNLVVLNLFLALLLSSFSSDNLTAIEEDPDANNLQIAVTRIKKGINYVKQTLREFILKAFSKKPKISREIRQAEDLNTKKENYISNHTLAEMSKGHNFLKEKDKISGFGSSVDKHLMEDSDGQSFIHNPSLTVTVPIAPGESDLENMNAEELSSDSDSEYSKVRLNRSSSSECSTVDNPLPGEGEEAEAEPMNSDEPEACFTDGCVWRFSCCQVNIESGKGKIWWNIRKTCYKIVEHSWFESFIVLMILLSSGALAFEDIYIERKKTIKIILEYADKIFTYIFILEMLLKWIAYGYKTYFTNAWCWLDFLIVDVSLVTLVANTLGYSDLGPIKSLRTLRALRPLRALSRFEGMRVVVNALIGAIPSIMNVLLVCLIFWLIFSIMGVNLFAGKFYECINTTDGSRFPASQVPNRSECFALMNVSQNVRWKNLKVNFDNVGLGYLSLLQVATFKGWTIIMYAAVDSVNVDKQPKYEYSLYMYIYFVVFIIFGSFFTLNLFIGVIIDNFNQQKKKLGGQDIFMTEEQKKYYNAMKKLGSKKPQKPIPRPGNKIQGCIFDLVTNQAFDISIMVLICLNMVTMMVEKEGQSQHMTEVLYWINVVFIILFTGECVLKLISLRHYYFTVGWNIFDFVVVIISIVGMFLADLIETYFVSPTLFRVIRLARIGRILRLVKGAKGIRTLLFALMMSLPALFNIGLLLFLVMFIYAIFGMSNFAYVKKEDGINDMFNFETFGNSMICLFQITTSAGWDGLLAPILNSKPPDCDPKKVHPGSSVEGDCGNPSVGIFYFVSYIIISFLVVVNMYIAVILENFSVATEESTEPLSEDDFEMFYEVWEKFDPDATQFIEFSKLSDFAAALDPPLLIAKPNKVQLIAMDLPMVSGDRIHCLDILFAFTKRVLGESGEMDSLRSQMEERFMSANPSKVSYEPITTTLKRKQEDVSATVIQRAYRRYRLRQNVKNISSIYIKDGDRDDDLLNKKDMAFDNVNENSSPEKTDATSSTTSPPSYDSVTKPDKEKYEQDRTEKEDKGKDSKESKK
Sequence of CYP450 2C9 (P11712 whole entry): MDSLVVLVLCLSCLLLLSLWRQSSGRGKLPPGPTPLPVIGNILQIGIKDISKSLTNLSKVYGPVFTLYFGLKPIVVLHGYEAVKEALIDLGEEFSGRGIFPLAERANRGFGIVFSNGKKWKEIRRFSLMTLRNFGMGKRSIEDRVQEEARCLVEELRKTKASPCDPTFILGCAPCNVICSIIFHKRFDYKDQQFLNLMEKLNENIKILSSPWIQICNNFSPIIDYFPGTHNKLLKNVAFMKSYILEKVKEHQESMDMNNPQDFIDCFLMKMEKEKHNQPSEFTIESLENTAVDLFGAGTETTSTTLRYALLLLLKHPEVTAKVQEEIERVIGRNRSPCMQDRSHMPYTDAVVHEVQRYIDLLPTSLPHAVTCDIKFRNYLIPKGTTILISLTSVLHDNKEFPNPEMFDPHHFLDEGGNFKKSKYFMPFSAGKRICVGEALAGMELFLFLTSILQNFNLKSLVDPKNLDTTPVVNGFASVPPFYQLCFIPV
Sequence of CYP450 2D6 (P10635 whole entry): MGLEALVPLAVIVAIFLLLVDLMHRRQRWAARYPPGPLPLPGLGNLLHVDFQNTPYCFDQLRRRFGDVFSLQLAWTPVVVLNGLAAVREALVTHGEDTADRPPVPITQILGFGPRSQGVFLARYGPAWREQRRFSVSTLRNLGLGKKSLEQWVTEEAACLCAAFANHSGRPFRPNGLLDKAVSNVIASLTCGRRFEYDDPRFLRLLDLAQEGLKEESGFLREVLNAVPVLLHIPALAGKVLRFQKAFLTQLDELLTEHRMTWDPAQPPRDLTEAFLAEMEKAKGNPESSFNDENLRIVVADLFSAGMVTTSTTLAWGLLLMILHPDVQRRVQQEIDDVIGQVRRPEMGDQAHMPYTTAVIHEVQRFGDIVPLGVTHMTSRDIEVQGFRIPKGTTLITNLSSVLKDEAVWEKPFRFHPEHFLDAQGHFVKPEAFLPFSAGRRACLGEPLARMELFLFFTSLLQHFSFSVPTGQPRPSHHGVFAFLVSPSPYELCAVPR
Sequence of CYP450 2C19 (CYP2C19) (P33261 whole entry): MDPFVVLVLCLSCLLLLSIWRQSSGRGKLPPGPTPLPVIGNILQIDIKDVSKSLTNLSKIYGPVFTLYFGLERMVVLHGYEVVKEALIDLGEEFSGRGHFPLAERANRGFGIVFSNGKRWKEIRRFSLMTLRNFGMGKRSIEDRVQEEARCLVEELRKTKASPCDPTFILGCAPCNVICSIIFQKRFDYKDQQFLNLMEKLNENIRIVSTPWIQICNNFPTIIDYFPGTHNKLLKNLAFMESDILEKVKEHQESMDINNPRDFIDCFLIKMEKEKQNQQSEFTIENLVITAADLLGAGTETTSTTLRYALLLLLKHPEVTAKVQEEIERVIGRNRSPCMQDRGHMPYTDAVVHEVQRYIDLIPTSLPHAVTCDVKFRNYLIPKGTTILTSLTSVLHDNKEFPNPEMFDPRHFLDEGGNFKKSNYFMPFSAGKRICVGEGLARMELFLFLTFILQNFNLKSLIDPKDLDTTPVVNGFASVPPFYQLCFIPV
Sequence of 3A4 (CYP3A4) (P08684 whole entry): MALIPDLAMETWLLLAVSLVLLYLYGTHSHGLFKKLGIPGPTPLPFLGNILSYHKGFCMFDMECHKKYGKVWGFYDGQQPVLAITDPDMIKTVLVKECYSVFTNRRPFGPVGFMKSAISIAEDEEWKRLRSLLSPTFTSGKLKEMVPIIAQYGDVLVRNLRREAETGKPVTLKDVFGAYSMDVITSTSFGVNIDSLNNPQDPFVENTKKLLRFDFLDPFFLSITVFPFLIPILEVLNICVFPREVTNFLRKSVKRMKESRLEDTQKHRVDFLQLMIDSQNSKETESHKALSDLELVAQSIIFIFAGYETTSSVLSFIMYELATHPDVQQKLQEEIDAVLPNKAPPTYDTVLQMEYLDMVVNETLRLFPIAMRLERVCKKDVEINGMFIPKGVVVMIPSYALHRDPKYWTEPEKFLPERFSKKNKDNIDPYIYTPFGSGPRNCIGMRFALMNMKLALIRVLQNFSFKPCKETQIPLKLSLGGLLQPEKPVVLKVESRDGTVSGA

## O=C1N(Cc2ccc(C(F)(F)F)o2)c2ccccc2[C@]12COc1cc3c(cc12)OCO3 [spiro-oxindole compound, (S)-1′-{[5-(trifluoromethyl)furan-2-yl]methyl}spiro[furo[2,3-f][1,3]benzodioxole-7,3′-indol]-2′(1′H)-one]
[1]
  total number of metabolites identified: 8 metabolites
[2]
  efficacy compared with 5% lidocaine: superior efficacy to 5% lidocaine
CYP450 2D6
  contribution to spiro-oxindole compound metabolism: likely to play a less extensive role
[3]; female minipigs
  Cmax: 20 ng/mL
  AUC(0-t): 382 ng·h/mL
[3]; male minipigs
  Cmax: 21 ng/mL
  AUC(0-t): 365 ng·h/mL
Minipig hepatocytes
  in vitro metabolic stability in hepatocytes: 18%
CYP3A4
  spiro-oxindole compound plasma concentrations without evidence of a DDI: up to 752 ng/mL and ≤ 1.8 μM
CYP3A4; plasma concentrations up to 752 ng/mL (i.e., 1.8 μM)
  drug-drug interaction with iv midazolam (CYP3A4 substrate): no evidence of a DDI
[4]
  genotoxicity: not genotoxic
[5]; male, Göttingen, minipig, plasma, topical or ocular, 70 mg ointment/kg, minipigs, 21 days of repeated dermal dosing, read-out: mean maximum observed concentration (Cmax) in plasma
  Cmax: 15 ng/mL
[5]; minipig, bone marrow
  mean tissue radioactivity concentration: 154 ng equivalents spiro-oxindole compound/g
[5]; minipig, fat (abdominal / white)
  mean tissue radioactivity concentration: 273 ng equivalents spiro-oxindole compound/g
[5]; minipig, fat (brown)
  mean tissue radioactivity concentration: 100 ng equivalents spiro-oxindole compound/g
[5]; minipig, gall bladder contents
  mean tissue radioactivity concentration: 4870 ng equivalents spiro-oxindole compound/g
[5]; minipig, heart
  total radioactivity in tissue: 18.5 ng equiv spiro-oxindole compound/g
[5]; minipig, liver
  total radioactivity in tissue: 74.9 ng equiv spiro-oxindole compound/g
[5]; minipig, muscle underlying the dose site
  mean tissue radioactivity concentration: 142 ng equivalents spiro-oxindole compound/g
[5]; minipig, skin from the dose site
  mean tissue radioactivity concentration: 25500 ng equivalents spiro-oxindole compound/g
[5]; minipig, skin remote from the dose site
  mean tissue radioactivity concentration: 111 ng equivalents spiro-oxindole compound/g
[5]; minipigs, repeated daily dermal dosing of 8% ointment
  systemic exposure (in words): low systemic exposure
Rat hepatocytes
  in vitro metabolic stability in hepatocytes: 16%
CYP450 2C9
  contribution to spiro-oxindole compound metabolism: limited or no involvement
Human hepatocytes
  in vitro metabolic stability in hepatocytes: 80%
[6]
  genotoxicity: not genotoxic
Rat bone marrow
  genotoxicity: not genotoxic
[7]
  efficacy compared with gabapentin: comparable efficacy to gabapentin
3A4 (CYP3A4)
  contribution to spiro-oxindole compound metabolism: major contributors
CYP450 2C19 (CYP2C19)
  contribution to spiro-oxindole compound metabolism: major contributors
NaV1.7
  potency of block against NaV1.7, inactivated state compared with resting state: approximately 220 fold
[8]
  protein bound: 99.6%
